The results in this text go back to PubChem BioAssay (NCI).

Holding throughout (assay): inhibition of tumour cell growth, NCI panel, 48 h
Test [1] has as its system HCC-2998 colon.
In test [2] the test system is MCF7 breast.
In test [3] the test system is MDA-MB-435.
For test [4], the system named is PC-3 prostate.
Test [5] concerns DMS 114 small cell lung.
Test [6] deals with RXF 393 renal.
Test [7] has as its system SR leukemia.
In test [8] the test system is TK-10 renal.
The subject of test [9] is 786-0 renal.
Test [10] deals with BT-549 breast.

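48-hour exposure; five concentrations; linearly interpolated endpoints. GI50: concentration for 50% inhibition of growth. TGI is the concentration that stops growth completely.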 Bounds are passed on as bounds.

As for `COc1cc(C2CC(c3cccc(Nc4ccncc4)c3)=NN2c2ccc(Cl)cc2)cc(OC)c1OC` (configuration not stated), the GI50 in test [1] is 1.54 µM; in test [2], 1.72 µM; in [3], 1.62 µM; in test [4] it was 1.4 µM. In addition, the TGI in test [1] came to 2.91 µM; in test [2] it was 3.61 µM; in test [3], 3.08 µM; in [4] it was 3 µM.

Consider `COc1ccc(/C(Cl)=C(\C=O)c2ccc(OC)cc2)cc1`, for which the TGI was over 100 µM in test [5]; over 100 µM in test [1]; over 100 µM in [6]; 78.8 µM in test [7]; over 100 µM in [8].

Consider `Nc1ccccc1N=Cc1cc2cc([N+](=O)[O-])ccc2s1`, for which the TGI was 29.2 µM in [9]; 52.9 µM in test [10]; 54.6 µM in test [1]; 23 µM in [2]; over 100 µM in test [3]; 30.9 µM in test [4]. The figures for the TGI in test [6], in test [7] and in test [8] were 28.7 µM, over 100 µM and 29.6 µM, respectively.

In the case of `COc1cc(/C=C/C(=O)Oc2ccc(NC(C)=O)cc2)ccc1C(=O)O/C=C/c1ccccc1`, the TGI in test [5], in [1], in test [2] and in test [6] was over 100 µM each time.

As for `COc1ccc(-c2nc3ncccn3c2-c2ccc(SC)cc2)cc1`, the TGI in [9] was 46 µM; in test [10] it was 46.5 µM; in test [3], 0.499 µM; in test [4] it was over 100 µM; in [7], 10.6 µM.

As for `CSc1ccsc1-c1sc(-c2cc(SC)c(-c3sc(-c4cc(SC)c(-c5sccc5SC)s4)cc3SC)s2)cc1SC`, the TGI is 29.1 µM in test [9]; over 100 µM in [10]; over 100 µM in [1]; over 100 µM in [2]; 56.5 µM in [3]; over 100 µM in test [4]. In addition, the TGI in test [6] and in test [8] was over 100 µM each time.

As to `CCc1nc(N)nc(N)c1-c1ccc([N+](C)(C)C)cc1`, the TGI in test [9], in [10], in [1], in test [2], in test [3] and in [4] was over 100 µM each time. Besides, the TGI in test [6], in [7] and in test [8] was over 100 µM in each case.

As for `COc1ccc2c(C(=O)c3cn(CCN4CCOCC4)c4ccccc34)cccc2c1`, the TGI in test [9] is over 100 µM; in test [10] it was over 100 µM; in [1] it was over 100 µM; in test [2], over 80.2 µM; in [3] it was over 100 µM; in test [4], over 100 µM. The TGI in test [6], in test [7] and in test [8] was over 100 µM each time.

In the case of `CCOC(=O)c1c2c(n(Cc3ccccc3)c1C)C(=O)C(=O)c1ccccc1-2`, the TGI in test [9] was 1.49 µM; in [1], 1.17 µM; in test [3], 0.112 µM; in test [4], 5.14 µM; in test [8], 1.18 µM.

As to `CCSC1=N/C(=C\c2ccc(N(C)C)cc2)C(Cl)=N1`, the TGI in [9], in [10], in test [1], in test [2], in [3] and in [4] was over 100 µM throughout. Also, the TGI in test [6] and in test [8] was over 100 µM in each case.

As to `FC(F)(F)c1ccc2c(c1)nc(-c1ccc(Cl)cc1)n2CC1CCCN2CCCCC12` (configuration not stated), the TGI was found to be 27 µM in test [9]; 27.9 µM in test [10]; 26.7 µM in test [1]; 29.8 µM in test [2]; 35.8 µM in test [3]; 23.7 µM in test [4]. The values for the TGI in [6], in test [7] and in test [8] were 30.1 µM, 33.8 µM and 28.5 µM, respectively.

With `CCC(=O)O[C@H]1CC[C@H]2[C@@H]3CCC4=C/C(=N/OC(=O)c5cccc6cc7ccccc7nc56)CC[C@]4(C)[C@H]3CC[C@]12C`, the TGI in test [9], in test [10], in test [1], in test [2], in test [3] and in [4] was over 100 µM in each case. Also, the TGI in [6] and in [7] was over 100 µM in each case.

As for `N=C1C(=N)c2ccccc2-c2ccccc21.N=C1C(=N)c2ccccc2-c2ccccc21.N=C1C(=N)c2ccccc2-c2ccccc21.[Cl-].[Ru+2]`, the TGI in [9] was 28.5 µM; in test [5] it was 3.07 µM; in test [1], over 31.6 µM; in [6] it was 5.58 µM; in [7], 5.57 µM. The GI50 in test [5] was 1.63 µM.

With `COC(C)(C)OCCN1CCN(CCN2C3=C(C=C(C(C)=O)C3)Sc3ccccc32)CC1`, the TGI turned out to be 36 µM in test [9]; 44.1 µM in test [10]; 36.2 µM in test [1]; 30.9 µM in [3]; 72.9 µM in [4]; 42.2 µM in test [6]. In addition, the TGI in test [7] came out at 33.2 µM; in test [8] it was 34.6 µM.

Take `Cc1cc2c(cc1C(=O)c1ccc(N)cc1)OCO2`: the TGI in [9] was over 100 µM; in test [10], over 100 µM; in [2], 53.8 µM; in test [3] it was 23.4 µM; in [4] it was over 100 µM; in test [7], over 100 µM. The TGI in test [8] was over 100 µM.

As for `CC(C)(C)[Si](C)(C)Oc1ccc(C2CNC(=O)C23CCC(=O)N3Cc2ccccc2)cc1` (configuration not stated), the TGI in test [9] was found to be 45.3 µM; in [10], 33.1 µM; in [2] it was 17.6 µM; in test [3], 29.9 µM; in test [4] it was 35.7 µM; in test [6] it was 23.2 µM. For the same compound, the figures for the TGI in [7] and in [8] were over 100 µM and 51.8 µM, respectively.

Turning to `Oc1cn(-c2ccc(Cl)cc2)nc1-c1n[nH]c(=S)n1-c1ccccc1`, the TGI in test [9] is 27.1 µM; in test [2], 21.9 µM; in test [3] it was 5.09 µM; in test [4] it was over 100 µM; in [6], 36.9 µM; in [7] it was 94 µM. Further, the TGI in test [8] is 58.7 µM.

Take `C[C@H]1C(=O)O[C@@H]2CCN3CC=C(COC(=O)[C@](C)(O)[C@@]1(C)O)[C@H]23`: the TGI in test [9], in test [10], in test [1], in test [2], in [3] and in test [4] was over 100 µM throughout. In test [8], this compound came in with a TGI of over 100 µM.

In the case of `Cc1c2cccc-2c(OCCO)cc2c3ccccc3n(C)c12`, the TGI in [9] was found to be 16.2 µM; in [10], 13.4 µM; in test [1], 14.6 µM; in test [2] it was 20.8 µM; in test [3] it was 25.2 µM; in [4] it was 11.5 µM. In addition, the TGI was over 100 µM in test [6], 6.12 µM in [7] and 23.4 µM in [8].

For `CN(C)C(=O)/C=C/c1c[nH]c(=O)[nH]c1=O`, the TGI in test [5], in test [1], in [2] and in test [6] was over 500 µM throughout.

With `CC(=O)NNc1nc(-c2ccc([N+](=O)[O-])cc2)c(C#N)c(=O)n1C`, the TGI in test [9] was 47 µM; in [10] it was 23 µM; in test [2] it was 97.3 µM; in [3] it was over 100 µM; in [4] it was over 100 µM; in [6], over 100 µM. Besides, the TGI was over 100 µM in test [7] and 72.8 µM in [8].

With `NCCCn1c2c(c3ccc([N+](=O)[O-])cc3c1=O)C(=O)c1ccccc1-2`, the GI50 was 0.235 µM in test [10]; 0.0122 µM in test [2]; 0.322 µM in test [3]; 0.326 µM in test [4]; 0.709 µM in test [6]; 0.005 µM in [7]. For the same compound, the GI50 in test [8] was 0.212 µM. For the same compound, the TGI was 0.881 µM in test [10]; over 50 µM in test [2]; 2.08 µM in [3]; 3.61 µM in test [4]; 2.1 µM in test [6]; over 50 µM in test [7]. In addition, the TGI in test [8] was determined as 1.83 µM.

Consider `COc1ccc2c(c1)CCCN2CCCCCCCCCCN(CCC(C)C)CCC(C)C`, for which the TGI in test [9] is 27.5 µM; in test [5], 19.5 µM; in test [1] it was 19.2 µM; in [8] it was 31.9 µM.

Turning to `O=C(Nc1ccc([N+](=O)[O-])cc1[N+](=O)[O-])C(=O)C(C(=O)c1ccc2ccccc2c1)C1OC(=O)c2ccccc21` (configuration not stated), the TGI in test [5] stood at 45.1 µM; in test [1] it was 25 µM; in test [6], 27.3 µM; in [7] it was 16.7 µM; in [8] it was 61.7 µM.

In the case of `Nc1n[nH]c(=O)c2c1c(I)cn2C1OC(CO)C(O)C1O` (configuration not stated), the TGI in test [5] was 6.62 µM; in [1], 7.45 µM; in test [6], 3.22 µM; in test [7] it was 1.33 µM; in [8], over 100 µM.

With `CN(C)CCNC(=O)c1cccc2ccc(-c3ccc(F)cc3)nc12`, the TGI came out at 17.8 µM in [5], 19.3 µM in test [1], 20.5 µM in [2] and 20.4 µM in test [6].

As to `CC(Oc1ccc(Cl)cc1Cl)C(=O)NN1C(=O)CSC1c1ccccc1` (configuration not stated), the TGI in test [9] was over 100 µM; in test [10] it was 46.5 µM; in test [1] it was over 100 µM; in test [2], over 100 µM; in test [3] it was over 100 µM; in test [4], over 100 µM. Besides, the TGI is over 100 µM in [6], 19.2 µM in test [7] and over 100 µM in test [8].
